# Data: patent US7807138B2, “Biomarkers of metabolic responses to hepatic drugs” (Metabolon, Inc., priority 2006, dated 2010)
# Marks after values point to notes of the source that are not given here.
# Key:
# rat liver [1] = test: Liver histology; format: in vivo
# Method: […] Six rats per dose group were euthanized at 6 and 24 h post-dose. Serum (for metabolomics and alanine aminotransferase (ALT), and aspartate aminotransferase (AST)), liver lobes (for histology), and frozen liver and urine (for metabolomics) were collected. Six rats per dose group were placed in metabolism cages for urine collection at −24-0 h, 0-6 h, 6-24 h and 24-48 h. These rats were removed from metabolism cages at 48 h post-dose, for blood and liver collection. The detailed study design is set forth in Chart 1.
# rats = test: Liver enzymes ALT and AST in serum; format: in vivo, rat; settings: 50 or 250 mg/kg, any groups
# Method: In detail, a single dose of clofibrate or vehicle was administered by gavage (0, 50 and 250 mg/kg) to groups of 18 male Sprague Dawley rats at 11 wks age. Six rats per dose group were euthanized at 6 and 24 h post-dose. Serum (for metabolomics and alanine aminotransferase (ALT), and aspartate aminotransferase (AST)), liver lobes (for histology), and frozen liver and urine (for metabolomics) were collected. Six rats per dose group were placed in metabolism cages for urine collection at −24-0 h, 0-6 h, 6-24 h and 24-48 h. These rats were removed from metabolism cages at 48 h post-dose, for blood and liver collection. The detailed study design is set forth in Chart 1.
# rat liver [2] = settings: rats, cited from earlier work
# rat liver [3] = test: LC-MS metabolomics of liver from rats dosed with clofibrate; format: in vivo; settings: LCMS
# Method: In one embodiment, the hepatotoxicant is clofibrate. Clofibrate or vehicle is administered orally (0, 50, 250 mg/kg/d) to groups of 6 rats and serum and livers are collected 6 and 24 h after either a single or 14 daily doses. Global biochemical profiles are determined by LC-MS and GC-MS and components highly perturbed by clofibrate exposure are identified by the methods described above. […] Rats (6 per group) were dosed by gavage with vehicle, 50 or 250 mg/kg clofibrate per day for 1 (single dose) or 14 days (repeated dose). These groups are referred to as “day 1” and ‘day 14 (d 1 and d14).” Liver and serum were collected at 6 and 24 h post-dosing in the day 1 and day 14. In detail, a single dose of clofibrate or vehicle was administered by gavage (0, 50 and 250 mg/kg) to groups of 18 male Sprague Dawley rats at 11 wks age. Six rats per dose group were euthanized at 6 and 24 h post-dose. Serum (for metabolomics and alanine aminotransferase (ALT), and aspartate aminotransferase (AST)), liver lobes (for histology), and frozen liver and urine (for metabolomics) were collected. Six rats per dose group were placed in metabolism cages for urine collection at −24-0 h, 0-6 h, 6-24 h and 24-48 h. These rats were removed from metabolism cages at 48 h post-dose, for blood and liver collection. The detailed study design is set forth in Chart 1. Samples were extracted with 20% acetonitrile, then were evaporated and re-constituted in distilled water. For the liver, the left lobe was selected for metabolomic analysis. LC-MS was performed in positive and negative electrospray ionization modes on Bruker time of flight (TOF) instruments, using Icoria™ proprietary HPLC methods and picking and alignment programs. Samples were randomly placed in wells on 96-well plates, keeping d 1 and d 14 samples on separate plates. Between 54 and 72 samples plus quality control samples were run on each plate. Pre- and post-flight instrument checks were carried out. Thereafter, data integrity checks were performed to detect any errors related to our Laboratory Information Management System (LIMS) system, labeling of samples, and missing or extraneous information. […] Metabolites associated with LC-MS components were putatively identified using our proprietary database of mammalian metabolites as well as external sources of metabolic information.
# rat liver [4] = test: GC-MS metabolomics of liver from rats dosed with clofibrate; format: in vivo; settings: 250 mg/kg/d
# Method: In one embodiment, the hepatotoxicant is clofibrate. Clofibrate or vehicle is administered orally (0, 50, 250 mg/kg/d) to groups of 6 rats and serum and livers are collected 6 and 24 h after either a single or 14 daily doses. Global biochemical profiles are determined by LC-MS and GC-MS and components highly perturbed by clofibrate exposure are identified by the methods described above. […] Rats (6 per group) were dosed by gavage with vehicle, 50 or 250 mg/kg clofibrate per day for 1 (single dose) or 14 days (repeated dose). These groups are referred to as “day 1” and ‘day 14 (d 1 and d14).” Liver and serum were collected at 6 and 24 h post-dosing in the day 1 and day 14. In detail, a single dose of clofibrate or vehicle was administered by gavage (0, 50 and 250 mg/kg) to groups of 18 male Sprague Dawley rats at 11 wks age. Six rats per dose group were euthanized at 6 and 24 h post-dose. Serum (for metabolomics and alanine aminotransferase (ALT), and aspartate aminotransferase (AST)), liver lobes (for histology), and frozen liver and urine (for metabolomics) were collected. Six rats per dose group were placed in metabolism cages for urine collection at −24-0 h, 0-6 h, 6-24 h and 24-48 h. These rats were removed from metabolism cages at 48 h post-dose, for blood and liver collection. The detailed study design is set forth in Chart 1. For GC-MS, liver was extracted with CHCl3:MeOH mixtures. Organic residue was derivitized with BSTFA and dried aqueous residues were derivitized with methoxyamine HCl/BSTFA. Samples were injected with 10:1 split into an Agilent 6890 gas chromatograph. A Leco Pegasus III TOFMS was used. Ions were generated at 70 eV with 3.2 mA ionization current; 25 spectra/s were recorded for 60-800 m/z. Acceleration voltage activated after 180 solvent delay. Detector voltage: 1750 V. Data were processed with Leco ChromaTOF software. Automatic peak detection and mass spectrum deconvolution were performed using 1.33 s peak width. Peaks with S/N less than 20 were rejected. Component identification was accomplished with the NIST 98' MS library and, in some cases, verified with standards. Components with similarity greater than 600 were used for analysis.
# [5] = 50 mg/kg/d for 14 days, 6 H after administration
# [6] = 50 mg/kg/d for 14 days, 24 H after administration
# [7] = 250 mg/kg/d for 14 days, 6 H after administration
# [8] = 250 mg/kg/d for 14 days, 24 H after administration
structure (smiles),measurement,setting,value
"CCOC(=O)C(C)(C)Oc1ccc(Cl)cc1 [Clofibrate, ethyl-p-chloro-phenoxyisobutyrate]",Histology: hepatocellular cytologic alterations,"rat liver [1]; after 14 doses at 250 mg/kg/day, all time points",hepatocellular cytologic alterations (indicating loss of glycogen and eosinophilic granular cytoplasm) were noted at all time points
same,Histology: hepatocellular mitotic figures,"rat liver [1]; after a single dose, 50 to 250-mg/kg",dose related increase and severity of hepatocellular mitotic figures
same,ALT,rats,not elevated
same,AST,rats,not elevated
same,Microscopic changes to liver,rat liver [2]; 24 h after a single exposure,no microscopic changes to liver
same,Liver histopathology,rat liver [2]; after 2 weeks,induced hypertrophy
same,D-Glycerate fold change relative to control,rat liver [3]; [5],1.3 fold change
same,Glycero-3-phosphoethanolamine fold change relative to control,rat liver [3]; [5],−3.2 fold change
same,Threonate fold change relative to control,rat liver [3]; [5],1.3 fold change
same,Ornithine fold change relative to control,rat liver [3]; [6],1.84 fold change
same,Threonate fold change relative to control,rat liver [3]; [6],−1.4 fold change
same,Various bile acids fold change relative to control,rat liver [3]; [6],1.3 fold change
same,Creatine fold change relative to control,rat liver [3]; [7],1.4 fold change
same,D-Glycerate fold change relative to control,rat liver [3]; [7],1.2 fold change
same,Glutathione fold change relative to control,rat liver [3]; [7],−1.5 fold change
same,Glycero-3-phosphoethanolamine fold change relative to control,rat liver [3]; [7],−7.7 fold change
same,Hypotaurine fold change relative to control,rat liver [3]; [7],1.3 fold change
same,Ornithine fold change relative to control,rat liver [3]; [7],2.3-5.4 fold change
same,Serine fold change relative to control,rat liver [3]; [7],1.3-1.7 fold change
same,Various bile acids fold change relative to control,rat liver [3]; [7],1.4 fold change
same,Creatine fold change relative to control,rat liver [3]; [8],2.1 fold change
same,Hypotaurine fold change relative to control,rat liver [3]; [8],1.3 fold change
same,Ornithine fold change relative to control,rat liver [3]; [8],2.8-10.6 fold change
same,Serine fold change relative to control,rat liver [3]; [8],1.7 fold change
same,1-Mono linoleoylglycerol fold change,"rat liver [4]; DAY 1, 6 H",1.11*** fold change
same,1-Mono oleoylglycerol fold change,"rat liver [4]; DAY 1, 6 H",0.98* fold change
same,1-Mono palmitoylglycerol fold change,"rat liver [4]; DAY 1, 6 H",0.91** fold change
same,2-Mono oleoylglycerol fold change,"rat liver [4]; DAY 1, 6 H",1.12*** fold change
same,Cholesterol fold change,"rat liver [4]; DAY 1, 6 H",1.34*** fold change
same,Glucose (aq) fold change,"rat liver [4]; DAY 1, 6 H",0.29* fold change
same,Glycine fold change,"rat liver [4]; DAY 1, 6 H",2.69** fold change
same,Lactic acid fold change,"rat liver [4]; DAY 1, 6 H",1.56** fold change
same,Linoleic acid fold change,"rat liver [4]; DAY 1, 6 H",0.97* fold change
same,Palmitate fold change,"rat liver [4]; DAY 1, 6 H",0.95*** fold change
same,Stearate fold change,"rat liver [4]; DAY 1, 6 H",1.07* fold change
same,1-Mono stearoylglycerol fold change,"rat liver [4]; DAY 1, 24 H",17.14** fold change
same,Glycerol 1(3)-phosphate fold change,"rat liver [4]; DAY 1, 24 H",2.56* fold change
same,Glycine fold change,"rat liver [4]; DAY 1, 24 H",3.42* fold change
same,L-Aspartic acid fold change,"rat liver [4]; DAY 1, 24 H",27.88*** fold change
same,Lactic acid fold change,"rat liver [4]; DAY 1, 24 H",4.41* fold change
same,Succinic acid (Butanedioic acid) fold change,"rat liver [4]; DAY 1, 24 H",17.05** fold change
same,l-Alanine fold change,"rat liver [4]; DAY 1, 24 H",4.74* fold change
same,1-Mono palmitoylglycerol fold change,"rat liver [4]; DAY 14, 6 H",0.04** fold change
same,1-Mono stearoylglycerol fold change,"rat liver [4]; DAY 14, 6 H",0.22** fold change
same,2-Mono stearoylglycerol fold change,"rat liver [4]; DAY 14, 6 H",0.41* fold change
same,Arachidonic acid fold change,"rat liver [4]; DAY 14, 6 H",0.22*** fold change
same,Cholesterol fold change,"rat liver [4]; DAY 14, 6 H",1.87** fold change
same,Malate fold change,"rat liver [4]; DAY 14, 6 H",0.1** fold change
same,Palmitate fold change,"rat liver [4]; DAY 14, 6 H",0.72** fold change
same,β-Sitosterol fold change,"rat liver [4]; DAY 14, 6 H",0.37** fold change
same,Cholesterol fold change,"rat liver [4]; DAY 14, 24 H",0.69** fold change
same,Docosahexaenoic acid fold change,"rat liver [4]; DAY 14, 24 H",0.58* fold change
same,Glucose (aq) fold change,"rat liver [4]; DAY 14, 24 H",0.39** fold change
same,Malate fold change,"rat liver [4]; DAY 14, 24 H",0.33** fold change
same,β-Sitosterol fold change,"rat liver [4]; DAY 14, 24 H",0.46* fold change
same,"Clofibrate metabolite Propanoic acid, 2-(4-chlorophenoxy)-2-methyl- in liver",rat liver [4]; cell spans the time columns,(not present in control)
